Source: patent publication US20090156477A1, “Compositions and Methods for Regulating Inflammatory Responses” (Massachusetts Institute of Technology, priority 2005, published 2009)

B1: FGF7: Recombinant human FGF7 from Sigma (protein, UniProt P21781 32-194, looked up)
Fibroblast growth factor 7: CNDMTPEQMATNVNCSSPERHTRSYDYMEGGDIRVRRLFCRTQWYLRIDKRGKVKGTQEMKNNYNIMEIRTVAVGIVAIKGVESEFYLAMNKEGKLYAKKECNEDCNFKELILENHYNTYASAKWTHNGGEMFVALNQKGIPVRGKKTKKEQKTAHFLPMAIT

What was measured:
Assay type in all cases: cell-based, human
Caco-2 cells = test: Caco-2 proliferation assay (whole cell number); settings: for increased whole cell number: 100 ng/ml ligand, three days, vs PBS control
Experimental: (§1) Caco-2 cells were grown to just prior to confluence, and T84 cells were grown to confluence. Each flask was washed with 20 ml PBS and treated with 3 ml trypsin-EDTA at 37° C. for 20-60 minutes until cells detached. Cells were centrifuged for 3 minutes at 195×g. The supernatant was aspirated, and the cells were resuspended in 10 ml media. The cell density was measured using an electronic cell counter, and the suspension was diluted to 50,000 cells/ml. The suspension was plated at 1 ml/well into 12-well tissue culture plates. After a 24 hour incubation in a 5% CO2, 37° C. humidified incubator, the media was aspirated, the wells were washed with serum free media, and the cells were supplemented with media containing 0.1% FBS. The wells were then supplemented with 10 μl PBS, 50 mM sodium chlorate, or 200 μM TM, and incubated for 24 hours. Subsequently, cells were supplemented with 100 ng/ml FGF1, FGF2, FGF7, or 10 μl PBS, and incubated for 72 hours. Wells were then washed twice with PBS and treated with 0.5 ml trypsin-EDTA/well and incubated at 37° C. until cells detached. Whole cell number was determined using an electronic cell counter. Data was averaged over three experiments, each consisting of four wells per condition.

Sdc-1 = test: RT-PCR expression in Caco-2 cells after FGF treatment: Sdc-1; settings: normalized to PBS treatment, defined as 1.0
Source text: (§2) Five μg of total RNA was isolated from Caco-2 cells using Trizol reagent (Life Tech, Rockville, Md.) followed by reverse transcription with random hexamers. Specific oligomers were designed based on published sequences in order to detect the expression of specific human Wnt, Fz and syndecan isoforms. Sequences of primer pairs were as follows: Wnt-1: 5′-CACGACCTCGTCTACTTCGAC-3′ (SEQ ID NO: 17) and 5′-ACAGACACTCGTGCAGTACGC-3′ (SEQ ID NO: 18); Wnt-2: 5′-CATGGTGGTACATGAGAGCTAC-3′ (SEQ ID NO: 19) and 5′-GGCAAATACAACTCCAGCTGAG-3′ (SEQ ID NO: 20); Wnt-3: 5′-GAGAGCCTCCCCGTCCACAG-3′ (SEQ ID NO: 21) and 5′-CTGCCAGGAGTGTATTCGCATC-3′ (SEQ ID NO: 22); Wnt-3a: 5′-CAGGAACTACGTGGAGATCATG-3′ (SEQ ID NO: 23) and 5′-CCATCCCACCAAACTCGATGTC-3′ (SEQ ID NO: 24); Fz-1: 5′-GAACTTTCCTCCAACTTCATGGC-3′ (SEQ ID NO: 25) and 5′-CATTTCCATTTTACAGACCGG-3′ (SEQ ID NO: 26); Fz-2: 5′-GGTGAGCCAGCACTGCAAGAG-3′ (SEQ ID NO: 27) and 5′-CCTAAAAGTGAAATGGTTTCGATCG-3′ (SEQ ID NO: 28); Fz-10: 5′-ACACGTCCAACGCCAGCATG-3′ (SEQ ID NO: 29) and 5′-ACGAGTCATGTTGTAGCCGATG-3′ (SEQ ID NO: 30); and Syndecan-1/Sdc-1/CD138: 5′-CTTCACACTCCCCACACAGA-3′ (SEQ ID NO: 31) and 5′-TCCTGTTTGGTGGGCTTCTG-3′ (SEQ ID NO: 32). To control for total cell […], RT-PCR was also performed on β-actin using the primers 5′-GCCAGCTCACCATGGATGATGATAT-3′ (SEQ ID NO: 33) and 5′-GCTTGCTGATCCACATCTGCTGGAA-3′ (SEQ ID NO: 34). PCR was performed using the Advantage-GC cDNA kit from Clontech as per manufacturer's instructions (Palo Alto, Calif.).

Fz2 = test: RT-PCR expression in Caco-2 cells after FGF treatment: Fz2; settings: normalized to PBS treatment, defined as 1.0
Source text: as §2

T84 cells [1] = test: Transepithelial resistance (TER) of T84 monolayers; settings: for inhibited TER increases: 100 ng/ml ligand, three days (72 hours) after addition, percent reduction in TER compared to PBS treated cells; for reduced resistance on day 5: ligand added on day 0 and day 2, compared to untreated cells
Experimental: Caco-2 cells were grown close to confluence, and T84 cells were grown to confluence. The apical chambers of transwell plates with 6.5 mm diameter and 3 μm pore size filters were pretreated with 50 μl of 45 μg/ml collagen IV in 60% ethanol 24 hours prior to plating and incubated overnight at room temperature. After reaching confluence, cells were washed with 20 ml PBS and treated with 3.5 ml trypsin-EDTA per 175 cm^2 flask for 20-60 min at 37° C. until cells detached. Cells were resuspended in 16.5 ml media appropriate to the cell type. Each apical chamber was supplemented with 82 μl cell solution. The basolateral chamber was filled with 1 ml propagation media. Filters were fed with new media every two days over the course of experiments.
Caco-2 and T84 cells were allowed to grow on transwells to form monolayers. Monolayer formation was examined every other day by light microscopy as well as by transepithelial resistance (TER) measurements using an EVOM ohmmeter (World Precision Instruments, Sarasota, Fla.). After monolayer formation, cells were treated with 100 ng/ml FGF1, 100 ng/ml FGF2, 100 ng/ml FGF7 or an equivalent volume (10 μl) of PBS. TER measurements were made either after 72 hours or at each of the 30 minutes, 1 hour, 2 hours, 4 hours, 9 hours, 24 hours and 48 hours timepoints. To determine the effects of multiple additions of ligand, FGFs or PBS were added initially and again after 2 days, and TER measurements were made after 0, 2 and 5 days.
To probe the mechanism by which various FGFs induced cell mediated effects, various media treatments were employed. Ammonium tetrathiomolybdate (TM) was added 24 hours prior to the addition of ligands to yield a final concentration of 200 μM, sufficient to prevent the release of FGF1 [3]. Similarly, sodium chlorate, which reduces cell HSPGs and the sulfation of associated HSGAGs, was added 24 hours prior to the addition of ligands to yield a final concentration of 50 mM [33,34]. Antibodies and kinase inhibitors were added immediately prior to ligands. Antibodies to FGF1, FGFR1 and FGFR3 were added at a 1:100 dilution. Kinase inhibitors were added to yield final concentrations of 50 μM LY294002, 20 μM PD98059, 1 μM SB203580. All experiments were performed in triplicate.

T84 cells [2] = test: T84 proliferation assay (whole cell number); settings: for increased whole cell number: 100 ng/ml ligand, three days, vs PBS control
Experimental: as §1

Wnt1 = test: RT-PCR expression in Caco-2 cells after FGF treatment: Wnt1; settings: normalized to PBS treatment, defined as 1.0
Source text: as §2

[3] = TM 200 μM, FGF1 added to TM treated cells

| Molecule | effect of added agent on proliferative effect of FGF2 and FGF7 (Caco-2 cells; [3]) | proliferation (in words) (Caco-2 cells; over three days) | Sdc-1 expression (intensity of RT-PCR images) (Sdc-1) | Fz2 expression (intensity of RT-PCR images) (Fz2) | inhibited TER increases (T84 cells [1]) [%] | reduced TER at 48 hours (T84 cells [1]; 100 ng/ml, 48 hours) [%] | effect of added agent on FGF-induced reduction in TER (T84 cells [1]; agent given before or with 100 ng/ml FGFs (TM 200 μM, sodium chlorate 50 mM, LY294002 50 μM, antibodies 1:100)) | effect of added agent on proliferative effect of FGF2 and FGF7 (T84 cells [2]; [3]) | proliferation (in words) (T84 cells [2]; over three days) | Wnt1 expression (intensity of RT-PCR images) (Wnt1) | increased whole cell number (Caco-2 cells) [%] | reduced resistance on day 5 (T84 cells [1]) [%] | increased whole cell number (T84 cells [2]) [%] |
| --- | --- | --- | --- | --- | --- | --- | --- | --- | --- | --- | --- | --- | --- |
| FGF1: Recombinant human FGF1 from Amgen | restored the proliferative capacity of these ligands | did not induce the proliferation | 1.3 | 0.7 | 30.1±1.5 | 22.7±3.2 | restored TER reductions | restored the proliferative capacity of these ligands | did not induce the proliferation | 2.2 |  |  |  |
| FGF2: Recombinant human FGF2, produced as described |  |  | 0.9 | 1.7 | 43.4±16.6 |  |  |  |  | 2.7 | 20.2±7.4 | 41.7±8.1 | 24.8±8.8 |
| B1 |  |  | 0.6 | 1.6 | 54.6±7.6 |  |  |  |  | 5.1 | 16.4±8.9 | 37.3±3.5 | 11.4±3.8 |
